From US20230312587A1, “PTERIDINONE COMPOUNDS AND USES THEREOF” (Vertex Pharmaceutical Incorporated, priority 2018, published 2023)
Read-outs that look alike come from different tables or passages of the source.

Experiments:
HepG2 XBP1(u)-Luc cells = experiment: HepG2 XBP1 reporter assay; format: cell-based; details: 6 h
Procedure: HepG2 hepatoma cells were transduced with a retrovirus encoding the cDNA for unspliced (u) XBP1, which contains a non-processed intron, fused to the cDNA for firefly luciferase. Upon induction of ER stress, the non-processed intron of XBP1(u) is spliced out by active IRE1alpha endonuclease. The resulting spliced (s) XBP1 is now in frame with luciferase which causes the production of active luciferase protein, resulting in bioluminescence
HepG2 XBP1(u)-Luc cells were plated […] Cultured cells with a stably transfected reporter construct were plated at approximately 30,000 cells per well into 96 well multi-well plates for twenty four hours. The testing compounds were then added to the wells in 3-fold serial dilutions using a twenty seven micromolar top concentration. A series of control wells for each cell type received only compound solvent. Six hours after the addition of compound, reporter activity for luciferase was assayed, by addition of the SteadyGlo luminescence reagent (Promega). The reporter luminescence activity was measured using Pherastar plate reader (BMG Labtech). Readings was normalized to DMSO only treated cells, and normalized activities were then used in the IC50 calculations. The HepG2 XBP1 reporter assay data are summarized in Table 47: A<0.6 μM; 0.6 μM≤B<2.0 μM; 2.0 μM≤C<10.0 μM; D≥10.0 μM.

[1] = test system: Hek293 WFS1 over-expressor; experiment: In vitro cell viability (CellTiter-Glo), Hek293 WFS1 over-expressor; format: cell-based; details: read-out: Hek293 WFS1 viability
Procedure: WFS1 cDNA is amplified from clone RC202901 (Origene Technologies) with primers 5′-TCCGCGGCCCCAAGCTTATCGCCATGGACTCCAACACTGC-3′ (SEQ ID NO: 1), 5′-GATGGGCCCAGATCTCGAGTCAGGCCGCCGACAGGAATG-3′ (SEQ ID NO: 2) and cloned into a retroviral mammalian expression vector pCLPCX using HD Infusion (CLONTECH) at Hind3-Xhol sites using standard procedures. The resulting clone is identified as pCLPCX_WFS1.
HEK293 (ATCC, catalog #CRL-1573) cells are plated in 10 cm dishes (Corning, product #430167) into 10 mL of complete DMEM cell culture media [DMEM (Life Technologies, product #11960-051) media supplemented with 10% FBS (Hyclone, catalog #SH30071.03), antimycotic/antibiotic (Life Technologies, product #15240-062), and Glutamax (Life Technologies, product #35050-061)] at 3×10^6 cells per dish. Cells are allowed to attach and grow overnight at 37° C. in humidified 5% CO2. Cells are co-transfected with pVSV-G, pCMV-Gag/Pol and pCLPCX_WFS1 using Fugene 6 (Promega, catalog #E2691) according to manufacturer's protocol. Separately, cells are co-transfected with pVSV-G, pCMV-Gag/Pol and pCLPCX to produce control retrovirus. Cell culture media containing retrovirus (viral supernatant) is collected at 48 and 72 hours following transfection, filtered through a 0.4 uM filter, and stored at −80° C.
HEK293 cells are plated in 6 well plates (Corning, product #3516) in 2 mL of complete DMEM cell culture media at 1×10^5 cells well and allowed to attach and grow overnight at 37° C. in humidified 5% CO2. The following day, the media is replaced with viral supernatant to which 10 ug/ml of Polybrene® (Santa Cruz Biotech, catalog #sc-134220) is added. Viral supernatant is replaced 24 hours later with complete DMEM media. Transduced cells are selected in complete DMEM cell culture media containing 1 microgram/mL of puromycin (Life Technologies, catalog #A1113803).
HEK293 cells containing empty pCLPCx vector (HEK293 empty), HEK293 cells stably over-expression WFS1 (HEK293 WFS1), HepG2, and HepG2 cells where WFS1 was depleted via CRISPR/Cas9 (HepG2 WFS1 KO) cells were plated into 96-well black plates (Corning, product #3904) in 100 microliters of complete DMEM cell culture media [DMEM (Life Technologies, product #11960-051) media supplemented with 10% FBS (Hyclone, catalog #SH30071.03), antimycotic/antibiotic (Life Technologies, product #15240-062), and Glutamax (Life Technologies, product #35050-061)] at 1,000 (HEK293) or 5,000 (HepG2) cells per well. Cells were allowed to attach and grow overnight, after which compounds are added at various concentrations. Cell viability was assessed 96 hrs after compound addition with CellTiter-Glo reagent (Promega, catalog #G7570) according to manufacturer's protocol and measurement on a Pherastar luminescence plate reader (BMG Labtech).
The IC50s for the viability of both the Hek293 empty vector and WFS1 over-expressing cells are summarized in Table 47: A<0.06 μM; 0.06 μM≤B<0.6 μM; 0.6 μM≤C<3.0 μM; D≥3.0 μM.

[2] = Homo sapiens, HEK293, Hek293 WFS1 over-expressing cells

## Cc1nc(N[C@H]2CC[C@H](Oc3ccc(C(F)(F)F)nc3)C2)nc2c1NC(=O)[C@H](C)N2C (single isomer, unassigned) [Compound 376]
HepG2 XBP1(u)-Luc cells; Homo sapiens
  IC50: 600 to 2000 nM
[1]; [2]
  IC50: 60 to 600 nM

## Cc1nc(NCc2cnn(Cc3ccc(C(F)(F)F)nc3C(C)C)c2)nc2c1NC(=O)[C@H](C)N2C [Compound 388, (7S)-2-(((1-((2-isopropyl-6-(trifluoromethyl)pyridin-3-yl)methyl)-1H-pyrazol-4-yl)methyl)amino)-4,7,8-trimethyl-7,8-dihydropteridin-6(5H)-one]
HepG2 XBP1(u)-Luc cells; Homo sapiens
  IC50: < 600 nM
[1]; [2]
  IC50: < 60 nM

## Cc1nc(NCc2cnn([C@@H](C)c3ccc(C(F)(F)F)nc3)c2)nc2c1NC(=O)[C@H](C)N2C [Compound 174, (7S)-4,7,8-Trimethyl-2-(((1-((S)-1-(6-(trifluoromethyl)pyridin-3-yl)ethyl)-1H-pyrazol-4-yl)methyl)amino)-7,8-dihydropteridin-6(5H)-one]
HepG2 XBP1(u)-Luc cells; Homo sapiens
  IC50: 600 to 2000 nM
[1]; [2]
  IC50: < 60 nM

## Cc1nc(N[C@H]2C[C@H](Oc3cc(F)c(F)c(F)c3)C2)nc2c1NC(=O)[C@H](C)N2C [Compound 246, (7S)-4,7,8-trimethyl-2-((trans-3-(3,4,5-trifluorophenoxy)cyclobutyl)amino)-7,8-dihydropteridin-6(5H)-one]
[1]; [2]
  IC50: < 60 nM

## Cc1nc(NCc2cnn([C@@H]3C[C@@H]3c3ccc(F)cc3)c2)nc2c1NC(=O)[C@H](C)N2C [Compound 154, (7S)-2-(((1-((1R,2R)-2-(4-fluorophenyl)cyclopropyl)-1H-pyrazol-4-yl)methyl)amino)-4,7,8-trimethyl-7,8-dihydropteridin-6(5H)-one]
HepG2 XBP1(u)-Luc cells; Homo sapiens
  IC50: < 600 nM
[1]; [2]
  IC50: < 60 nM

## Cc1nc(C(F)(F)F)ccc1Cn1cc(CNc2nc(C)c3c(n2)N(C)[C@@H](C)C(=O)N3)cn1 [Compound 188, (S)-4,7,8-trimethyl-2-(((1-((2-methyl-6-(trifluoromethyl)pyridin-3-yl)methyl)-1H-pyrazol-4-yl)methyl)amino)-7,8-dihydropteridin-6(5H)-one]
HepG2 XBP1(u)-Luc cells; Homo sapiens
  IC50: < 600 nM
[1]; [2]
  IC50: < 60 nM

## Cc1ccc(Cn2cc(CNc3nc(C)c4c(n3)N(C)[C@@H](C)C(=O)N4)cn2)cn1 [Compound 173, (7S)-4,7,8-trimethyl-2-(((1-((6-methylpyridin-3-yl)methyl)-1H-pyrazol-4-yl)methyl)amino)-7,8-dihydropteridin-6(5H)-one]
HepG2 XBP1(u)-Luc cells; Homo sapiens
  IC50: 2000 to 10000 nM
[1]; [2]
  IC50: 60 to 600 nM

## Cc1nc(N[C@H]2C[C@H](Oc3ccc(F)cc3)C2)nc2c1N(C)C(=O)[C@H](C)N2C [Compound 250, (7S)-2-((trans-3-(4-fluorophenoxy)cyclobutyl)amino)-4,5,7,8-tetramethyl-7,8-dihydropteridin-6(5H)-one]
[1]; [2]
  IC50: 60 to 600 nM

## Cc1nc(N[C@H]2C[C@H](Oc3ccc(C(F)(F)F)nc3)C2)nc2c1NC(=O)[C@H](C)N2C [Compound 324, (7S)-4,7,8-trimethyl-2-((trans-3-((6-(trifluoromethyl)pyridin-3-yl)oxy)cyclobutyl)amino)-7,8-dihydropteridin-6(5H)-one]
HepG2 XBP1(u)-Luc cells; Homo sapiens
  IC50: < 600 nM
[1]; [2]
  IC50: < 60 nM

## Cc1nc(NCc2cnn(Cc3cc(C(F)(F)F)nn3C)c2)nc2c1NC(=O)[C@H](C(C)C)N2C [Compound 397, (7S)-7-Isopropyl-4,8-dimethyl-2-(((1-((1-methyl-3-(trifluoromethyl)-1H-pyrazol-5-yl)methyl)-1H-pyrazol-4-yl)methyl)amino)-7,8-dihydropteridin-6(5H)-one]
HepG2 XBP1(u)-Luc cells; Homo sapiens
  IC50: < 600 nM
[1]; [2]
  IC50: < 60 nM

## COc1cc(F)ccc1Cn1cc(CNc2nc(C)c3c(n2)N(C)[C@@H](C)C(=O)N3)cn1 [Compound 83, (7S)-2-(((1-(4-fluoro-2-methoxybenzyl)-1H-pyrazol-4-yl)methyl)amino)-4,7,8-trimethyl-7,8-dihydropteridin-6(5H)-one]
HepG2 XBP1(u)-Luc cells; Homo sapiens
  IC50: 600 to 2000 nM
[1]; [2]
  IC50: < 60 nM

## COc1c(F)cc(Cn2cc(CNc3nc(C)c4c(n3)N(C)[C@@H](C)C(=O)N4)cn2)cc1F [Compound 46, (7S)-2-(((1-(3,5-difluoro-4-methoxybenzyl)-1H-pyrazol-4-yl)methyl)amino)-4,7,8-trimethyl-7,8-dihydropteridin-6(5H)-one]
[1]; [2]
  IC50: < 60 nM

## CC[C@H]1C(=O)Nc2c(C)nc(NCc3cnn(Cc4ccc(C(F)(F)F)nc4)c3)nc2N1C [Compound 186, (7S)-7-ethyl-4,8-dimethyl-2-(((1-((6-(trifluoromethyl)pyridin-3-yl)methyl)-1H-pyrazol-4-yl)methyl)amino)-7,8-dihydropteridin-6(5H)-one]
HepG2 XBP1(u)-Luc cells; Homo sapiens
  IC50: < 600 nM
[1]; [2]
  IC50: < 60 nM

## Cc1nc(NCc2cnn(Cc3ccnc(C(F)(F)F)c3)c2)nc2c1NC(=O)[C@H](C)N2C [Compound 207, (7S)-4,7,8-trimethyl-2-(((1-((2-(trifluoromethyl)pyridin-4-yl)methyl)-1H-pyrazol-4-yl)methyl)amino)-7,8-dihydropteridin-6(5H)-one]
HepG2 XBP1(u)-Luc cells; Homo sapiens
  IC50: < 600 nM
[1]; [2]
  IC50: < 60 nM

## Cc1nc(N[C@H]2CC[C@H](Oc3ccc(C(F)(F)F)nc3)C2)nc2c1NC(=O)[C@H](C)N2C (single isomer, unassigned) [Compound 377]
HepG2 XBP1(u)-Luc cells
  IC50: 600 to 2000 nM
[1]; Hek293 WFS1 over-expressing cells
  IC50: < 60 nM

## Cc1nc(NCc2cnn(Cc3cc(C(F)(F)F)nn3C)c2)nc2c1NC(=O)[C@H](C)N2C [Compound 160, (7S)-4,7,8-trimethyl-2-(((1-((1-methyl-3-(trifluoromethyl)-1H-pyrazol-5-yl)methyl)-1H-pyrazol-4-yl)methyl)amino)-7,8-dihydropteridin-6(5H)-one]
HepG2 XBP1(u)-Luc cells; Homo sapiens
  IC50: < 600 nM
[1]; [2]
  IC50: < 60 nM

## Cc1nc(NCc2cnn([C@H]3CCN(C4CCC(F)(F)CC4)C3)c2)nc2c1NC(=O)[C@H](C)N2C [Compound 142, (7S)-2-(((1-((S)-1-(4,4-difluorocyclohexyl)pyrrolidin-3-yl)-1H-pyrazol-4-yl)methyl)amino)-4,7,8-trimethyl-7,8-dihydropteridin-6(5H)-one]
HepG2 XBP1(u)-Luc cells; Homo sapiens
  IC50: 600 to 2000 nM
[1]; [2]
  IC50: 60 to 600 nM

## CCN1c2nc(NCc3cnn(Cc4ccc(C(F)(F)F)nc4)c3)nc(C)c2NC(=O)[C@@H]1C [Compound 395, (7S)-8-Ethyl-4,7-dimethyl-2-(((1-((6-(trifluoromethyl)pyridin-3-yl)methyl)-1H-pyrazol-4-yl)methyl)amino)-7,8-dihydropteridin-6(5H)-one]
HepG2 XBP1(u)-Luc cells; Homo sapiens
  IC50: 600 to 2000 nM
[1]; [2]
  IC50: < 60 nM

## Cc1nc(NCc2ccc(-n3cc(C(F)(F)F)cn3)nc2)nc2c1NC(=O)[C@H](C)N2C [Compound 143, (S)-4,7,8-trimethyl-2-(((6-(4-(trifluoromethyl)-1H-pyrazol-1-yl)pyridin-3-yl)methyl)amino)-7,8-dihydropteridin-6(5H)-one]
HepG2 XBP1(u)-Luc cells; Homo sapiens
  IC50: 2000 to 10000 nM
[1]; [2]
  IC50: 60 to 600 nM

## Cc1nc(NCc2cnn(Cc3ccc(F)nc3)c2)nc2c1NC(=O)[C@H](C)N2C [Compound 77]
[1]; [2]
  IC50: 60 to 600 nM
